The record followed here is EP4803523A1, “FUSED HETEROARYL COMPOUND, PREPARATION METHOD THEREFOR, AND USE THEREOF IN MEDICINE” (Jiangsu Hengrui Pharmaceuticals Co., Ltd., priority 2023, dated 2025).

Broadly, the IC50 is the concentration that gives 50% inhibition.

The test system of data set [1] is SW620. Description: 3D cell proliferation inhibition assay (CellTiter-Glo 3D). In kind it is cell-based. To be noted: Homo sapiens, SW-620, 120 h; SW620 cells, KRAS G12V, 3D culture, 5 days with compound. Here is the method:
(§1) This experiment uses the cells listed in the table below to evaluate the inhibitory effects of the compounds on the proliferation of KRAS mutant or KRAS amplified cells.
(§2) On the first day of the experiment, cells that were growing well and had reached 70%-80% confluence were digested, resuspended in culture medium, and the cell density was adjusted to the desired level. In a U-shaped low-attachment 96-well plate (Corning, 7007), 90 µL of cell suspension was added per well, with the cell density as shown in the table above. The cell plate was centrifuged at 2500 rpm for 5 minutes and then placed in an incubator for 24 hours of culture. On the second day, the 20 mM test compound dissolved in DMSO was diluted with DMSO to the first concentration of 2 or 0.2 mM, and then serially diluted in a 5-fold gradient to obtain 9 concentration points, with the control well containing DMSO. The serially diluted compound was then further diluted 20-fold with culture medium. 10 µL of the test compound diluted in culture medium was added to each well of the cell plate. The final concentrations of the compound were 9 points in a 5-fold serial dilution starting from 10 or 1 µM. Cell wells containing 0.5% DMSO were set as vehicle control wells, and wells containing only culture medium and 0.5% DMSO were set as blank control wells. The cell plate was centrifuged at 2000 rpm for 3 minutes and then placed in an incubator for 5 days of culture. On the seventh day, the 96-well cell culture plate was taken out, and 50 µL of the luminescent cell viability detection reagent, CellTiter-Glo® 3D Cell Viability Assay (Promega, G9683), was added to each well. After shaking at room temperature for 25 minutes, the mixture was pipetted up and down to mix, and 100 µL was transferred from each well to a white, opaque-bottom OptiPlate™-96 well plate (PerkinElmer, 6005290). The luminescence signal value was read using a multimode microplate reader (PerkinElmer, EnVision2105).
(§3) The inhibition rate was calculated using the following formula: Inhibition rate = (Luminescence value vehicle control well - Luminescence value test compound)/(Luminescence value vehicle control well - Luminescence value blank control well) × 100%. The IC50 values of the compound inhibitory activity were calculated using Graphpad Prism software. Table 1. Data of inhibitory activity on 3D cell proliferation (unit: nM)
(In general: ATP-based viability assays read luminescence as a measure of living cells.)

In data set [2] the test system is AGS. The description is as above. As to conditions: Homo sapiens, 120 h; AGS cells, KRAS G12D, 3D culture, 5 days with compound. Type of data set: cell-based. The protocol: as §1, §2, §3
The test system of data set [3] is H358. Described as above. As to conditions: Homo sapiens, NCI-H358, 120 h; H358 cells, KRAS G12C, 3D culture, 5 days with compound. Type of data set: cell-based. The protocol: as §1, §2, §3
In data set [4] the test system is MKN1. Described as above. Type of data set: cell-based. As to conditions: Homo sapiens, MKN-1, 120 h; MKN1 cells, KRAS Amp, 3D culture, 5 days with compound. The protocol:
as §1, §2, §3

Data set [5] deals with GP2d. Described as above. As to conditions: GP2d, 120 h, GP2d cells, KRAS G12D, 3D culture, 5 days with compound. Type of data set: cell-based. Here is the method: as §1, §2, §3
The test system of data set [6] is AsPC-1. Described as above. As to conditions: Homo sapiens, ASPC1, 120 h; AsPC-1 cells, KRAS G12D, 3D culture, 5 days with compound. Type of data set: cell-based. Here is the method: as §1, §2, §3
Data set [7] can be described thus: in vivo. As to conditions: both, SD, rat, plasma, po.
Experimental: Using SD rats as the test animals, the plasma concentrations of the example compounds at different time points were determined by LC-MS/MS following oral gavage (i.g.) administration. The pharmacokinetic behaviours of the compounds of the present disclosure in rats were investigated, and their pharmacokinetic profiles were evaluated.
Blood samples (0.2 mL) were collected from the orbit before administration and at 0.25, 0.5, 1.0, 2.0, 4.0, 6.0, 8.0, 11.0, and 24.0 hours after administration. The samples were placed in EDTA-K2 anticoagulant tubes, centrifuged at 10,000 rpm for 2 minute (4°C), and the plasma was separated within 1 hour and stored at -20°C or -80°C until analysis. The entire process from blood collection to centrifugation was performed in ice bath conditions.
The mixture was vortexed and then centrifuged at 4000 rpm for 15 minutes; the supernatant was taken for LC-MS/MS analysis. […] The mixture was vortexed and then centrifuged at 3700 rpm for 10 minutes; the supernatant was taken for LC-MS/MS analysis.
The mixture was vortexed and then centrifuged at 4000 rpm for 15 minutes; the supernatant was taken for LC-MS/MS analysis. […] The mixture was vortexed and then centrifuged at 4000 rpm for 15 minutes; the supernatant was taken for LC-MS/MS analysis.
The nature of data set [8]: Pharmacokinetic evaluation, mouse experiment (oral gavage, plasma LC-MS/MS). Type of data set: in vivo. As to conditions: balb/c nude mice, female, oral gavage (i.g.), 20.0 mg/kg. The protocol: Using balb/c nude mice as the test animals, the plasma concentrations of the example compounds at different time points were determined by LC-MS/MS following oral gavage (i.g.) administration. The pharmacokinetic behaviours of the compounds of the present disclosure in mice were investigated, and their pharmacokinetic profiles were evaluated.
Nine balb/c nude mice, female, were provided by Beijing Vital River Laboratory Animal Technology Co., Ltd. (Production License Number: SCXK(Zhejiang) 2024-0001).
A given amount of the test compound was weighed and formulated with 5% DMF + 45% PG + 50% (10% HS15-pH7.4 buffer) to prepare a 2.0 mg/mL clear and colourless solution.
The administration dose was 20.0 mg/kg, and the administration volume was 10 mL/kg.
Blood samples (0.1 ml) were collected from the orbit before administration and at 0.25, 0.5, 1.0, 2.0, 4.0, 6.0, 8.0, 11.0, and 24.0 hours after administration. The samples were placed in EDTA-K2 anticoagulant tubes, centrifuged at 10,000 rpm for 1 minute (4°C), and the plasma was separated within 1 hour and stored at -20°C or -80°C until analysis. The entire process from blood collection to centrifugation was performed in ice bath conditions. Food was provided 2 hours after administration.
The concentration of the test compound in mouse plasma after administration was determined as follows: 20 µL of the plasma sample collected at each time point after administration was taken, and 200 µL of internal standard acetonitrile solution (containing 20 ng/mL verapamil) was added. The mixture was vortexed and then centrifuged at 4000 rpm for 15 minutes; the supernatant was taken for LC-MS/MS analysis.

`N#Cc1c(N)sc2c(F)ccc(-c3c4c(c5cnc(OCC67CCCN6CC(=C(F)F)C7)nc5c3F)COC4)c12` (single isomer, unassigned) [Example 44A]: the IC50 in data set [1] was 3.4 nM; in data set [2], 5.03 nM; in data set [3], 2.78 nM; in data set [4] it was 1.3 nM; in data set [5], 2.59 nM; in data set [6] it was 8.36 nM.
As to `C[C@@H](O)CN1CC2CCC(C1)N2c1nc(OCC2(CN3CCC(=C(F)F)CC3)CC2)nc2c(F)c(-c3ncc(F)c4sc(N)c(C#N)c34)c3c(c12)COC3` [Example 2, 2-amino-4-(3-((1-((4-(difluoromethylene)piperidin-1-yl)methyl)cyclopropyl)methoxy)-5-fluoro-1-(3-((R)-2-hydroxypropyl)-3,8-diazabicyclo[3.2.1]oct-8-yl)-7,9-dihydrofuro[3,4-f]quinazolin-6-yl)-7-fluorothieno[3,2-c]pyridine-3-carbonitrile], the IC50 in data set [2] was determined as 2.36 nM; in data set [5], 1.79 nM; in data set [6], 6.18 nM. Also, the AUC(0-t) in data set [7] (20 mg/kg) came out at 5.17 µg·h/mL; in data set [7] (40 mg/kg), 17.6 µg·h/mL; in data set [8] (read-out: Area under the curve AUC0-t) it was 9.1 µg·h/mL. In addition, the CL/F in data set [7] (20 mg/kg) is 3.93 L/h/kg; in data set [7] (40 mg/kg), 2.2 L/h/kg; in data set [8] (read-out: Clearance CL/F), 2.19 L/h/kg. The Cmax in data set [7] (20 mg/kg) turned out to be 0.377 µg/mL; in data set [7] (40 mg/kg), 1.17 µg/mL; in data set [8] (read-out: Plasma concentration Cmax) it was 1.06 µg/mL. Besides, the Vd/F was 28 L/kg in data set [7] (20 mg/kg), 19.6 L/kg in data set [7] (40 mg/kg) and 9.07 L/kg in data set [8] (read-out: Apparent volume of distribution Vz/F). Also, the half-life in data set [7] (20 mg/kg) is 5.52 h; in data set [7] (40 mg/kg), 6.7 h; in data set [8] (read-out: Half life T1/2 (converted)), 2.87 h.
On to `N#Cc1c(N)sc2c(F)ccc(-c3c4c(c5cnc(OCC67CCCN6CC(=CF)C7)nc5c3F)COC4)c12` (stereo not shown) [Example 15, 2-Amino-7-fluoro-4-(5-fluoro-3-((2-(fluoromethylene)tetrahydro-1H-pyrrolizin-7a(5H)-yl)methoxy)-7,9-dihydrofuro[3,4-f]quinazolin-6-yl)benzo[b]thiophene-3-carbonitrile], for which the IC50 is 7.9 nM in data set [1]; 9.12 nM in data set [2]; 6.9 nM in data set [4]; 1.71 nM in data set [5]; 14.7 nM in data set [6].
For `N#Cc1c(N)sc2c(F)ccc(-c3c4c(c5cnc(OCC67CCCN6CC(=C(F)F)C7)nc5c3F)COC4)c12` (stereo not shown) [Example 27, 2-Amino-4-(3-((2-(difluoromethylene)tetrahydro-1H-pyrrolizin-7a(5H)-yl)methoxy)-5-fluoro-7,9-dihydrofuro[3,4-f]quinazolin-6-yl)-7-fluorobenzo[b]thiophene-3-carbonitrile], the IC50 in data set [1] worked out at 12.4 nM; in data set [3] it was 8.85 nM; in data set [4], 8.2 nM; in data set [5], 6.61 nM.
On to `N#Cc1c(N)sc2c(F)ccc(-c3c4c(c5c(C6CC6)nc(OC[C@@]67CCCN6C[C@H](F)C7)nc5c3F)COC4)c12` [Example 36, 2-Amino-4-(1-cyclopropyl-5-fluoro-3-(((2R,7aS)-2-fluorotetrahydro-1H-pyrrolizin-7a(5H)-yl)methoxy)-7,9-dihydrofuro[3,4-f]quinazolin-6-yl)-7-fluorobenzo[b]thiophene-3-carbonitrile], for which the half-maximal inhibitory concentration (IC50) was determined as 10.1 nM in data set [1] and 8.04 nM in data set [3].
Turning to `N#Cc1c(N)sc2c(F)ccc(-c3c4c(c5cnc(OCC6(CN7CCC(=CF)CC7)CC6)nc5c3Cl)COC4)c12` [Example 39, 2-Amino-4-(5-chloro-3-((1-((4-(fluoromethylene)piperidin-1-yl)methyl)cyclopropyl)methoxy)-7,9-dihydrofuro[3,4-f]quinazolin-6-yl)-7-fluorobenzo[b]thiophene-3-carbonitrile], the half-inhibitory concentration (IC50) in data set [1] amounted to 12.7 nM; in data set [2], 4.07 nM; in data set [3] it was 4.76 nM; in data set [4] it was 4 nM; in data set [5] it was 2.95 nM; in data set [6], 7.65 nM.
For the compound `C=CC(=O)N1CC2CCC(C1)N2c1nc(OCC2(CN3CCC(=C(F)F)CC3)CC2)nc2c(F)c(-c3ncc(F)c4sc(N)c(C#N)c34)c3c(c12)COC3` [Example 55], in data set [3], the IC50 stood at 0.63 nM.
The same measure, in the same setting: with `C=CC(=O)N1C[C@H](C)N(c2nc(OCC3(CN4CCC(=C(F)F)CC4)CC3)nc3c(F)c(-c4ncc(F)c5sc(N)c(C#N)c45)c4c(c23)COC4)C[C@H]1C` [Example 56] the figure was 6.76 nM.
